According to publication PMC3445516 (PLoS ONE, 2012):

Columns and labels:
Assay in all cases: Ambit kinase profiling, competition binding
[1] = target: T1, TIE2 (Homo sapiens, UniProt Q02763); conditions: compound concentration 10 uM, read-out: Percent Competition
T1 construct: purchased Ambit Biosciences (KINOMEscan)
Text: (§1) Supplement pone.0044653.s004.xls, sheet "Compound 122" | column: Percent Competition

[2] = target: T2, PKAC-alpha (Homo sapiens, UniProt P17612); conditions: compound concentration 10 uM, read-out: Percent Competition
T2 construct: purchased Ambit Biosciences (KINOMEscan)
Text: as §1

[3] = target: T3, FLT3(D835H) (Homo sapiens, UniProt P36888, D835H); conditions: compound concentration 10 uM, read-out: Percent Competition
T3 construct: purchased Ambit Biosciences (KINOMEscan)
Text: as §1

[4] = target: T4, RPS6KA6(Kin.Dom.1-N-terminal) (Homo sapiens, UniProt Q9UK32); conditions: compound concentration 10 uM
T4 construct: RPS6KA6(Kin.Dom.1-N-terminal); purchased Ambit Biosciences (KINOMEscan)
Text: as §1

[5] = target: T5, KIT(D816V) (Homo sapiens, UniProt P10721, D816V); conditions: compound concentration 10 uM, read-out: Percent Competition
T5 construct: purchased Ambit Biosciences (KINOMEscan)
T5 sequence (P10721 26-976 D816V): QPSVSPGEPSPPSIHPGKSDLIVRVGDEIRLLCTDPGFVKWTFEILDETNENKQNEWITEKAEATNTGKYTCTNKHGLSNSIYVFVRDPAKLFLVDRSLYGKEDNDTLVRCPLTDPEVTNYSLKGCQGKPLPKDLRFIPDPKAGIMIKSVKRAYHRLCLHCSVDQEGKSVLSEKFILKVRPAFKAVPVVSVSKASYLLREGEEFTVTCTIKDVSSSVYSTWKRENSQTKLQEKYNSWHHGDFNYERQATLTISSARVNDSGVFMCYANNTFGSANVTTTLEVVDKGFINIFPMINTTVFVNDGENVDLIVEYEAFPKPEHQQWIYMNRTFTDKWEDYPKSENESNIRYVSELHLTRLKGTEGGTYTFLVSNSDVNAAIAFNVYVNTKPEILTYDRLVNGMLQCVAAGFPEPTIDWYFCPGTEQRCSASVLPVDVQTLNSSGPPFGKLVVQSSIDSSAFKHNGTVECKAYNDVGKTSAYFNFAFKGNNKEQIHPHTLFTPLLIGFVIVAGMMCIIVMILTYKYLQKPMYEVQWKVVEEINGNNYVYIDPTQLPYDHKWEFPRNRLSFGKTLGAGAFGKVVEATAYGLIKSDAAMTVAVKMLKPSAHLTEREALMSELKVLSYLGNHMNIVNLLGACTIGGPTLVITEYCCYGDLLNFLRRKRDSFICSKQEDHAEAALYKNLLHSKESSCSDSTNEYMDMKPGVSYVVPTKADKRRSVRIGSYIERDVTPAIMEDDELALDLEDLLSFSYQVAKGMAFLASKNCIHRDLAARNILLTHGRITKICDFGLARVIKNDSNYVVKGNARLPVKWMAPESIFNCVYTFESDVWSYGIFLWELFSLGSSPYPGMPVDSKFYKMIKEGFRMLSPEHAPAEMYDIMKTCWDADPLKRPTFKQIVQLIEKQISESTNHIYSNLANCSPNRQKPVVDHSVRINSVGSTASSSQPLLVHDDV
Text: as §1

[6] = target: T6, PKMYT1 (Homo sapiens, UniProt Q99640); conditions: compound concentration 10 uM
T6 construct: purchased Ambit Biosciences (KINOMEscan)
Text: as §1

[7] = target: T7, TLK2 (Homo sapiens, UniProt Q86UE8); conditions: compound concentration 10 uM, read-out: Percent Competition
T7 construct: purchased Ambit Biosciences (KINOMEscan)
Text: as §1

[8] = target: T8, IKK-beta (Homo sapiens, UniProt O14920); conditions: compound concentration 10 uM, read-out: Percent Competition
T8 construct: purchased Ambit Biosciences (KINOMEscan)
Text: as §1

[9] = target: T9, FER (Homo sapiens, UniProt P16591); conditions: compound concentration 10 uM, read-out: Percent Competition
T9 construct: purchased Ambit Biosciences (KINOMEscan)
Text: as §1

[10] = target: T10, MYO3A (Homo sapiens, UniProt Q8NEV4); conditions: compound concentration 10 uM, read-out: Percent Competition
T10 construct: purchased Ambit Biosciences (KINOMEscan)
Text: as §1

[11] = target: T11, FLT4 (Homo sapiens, UniProt P35916); conditions: compound concentration 10 uM, read-out: Percent Competition
T11 construct: purchased Ambit Biosciences (KINOMEscan)
T11 sequence (P35916 25-1363): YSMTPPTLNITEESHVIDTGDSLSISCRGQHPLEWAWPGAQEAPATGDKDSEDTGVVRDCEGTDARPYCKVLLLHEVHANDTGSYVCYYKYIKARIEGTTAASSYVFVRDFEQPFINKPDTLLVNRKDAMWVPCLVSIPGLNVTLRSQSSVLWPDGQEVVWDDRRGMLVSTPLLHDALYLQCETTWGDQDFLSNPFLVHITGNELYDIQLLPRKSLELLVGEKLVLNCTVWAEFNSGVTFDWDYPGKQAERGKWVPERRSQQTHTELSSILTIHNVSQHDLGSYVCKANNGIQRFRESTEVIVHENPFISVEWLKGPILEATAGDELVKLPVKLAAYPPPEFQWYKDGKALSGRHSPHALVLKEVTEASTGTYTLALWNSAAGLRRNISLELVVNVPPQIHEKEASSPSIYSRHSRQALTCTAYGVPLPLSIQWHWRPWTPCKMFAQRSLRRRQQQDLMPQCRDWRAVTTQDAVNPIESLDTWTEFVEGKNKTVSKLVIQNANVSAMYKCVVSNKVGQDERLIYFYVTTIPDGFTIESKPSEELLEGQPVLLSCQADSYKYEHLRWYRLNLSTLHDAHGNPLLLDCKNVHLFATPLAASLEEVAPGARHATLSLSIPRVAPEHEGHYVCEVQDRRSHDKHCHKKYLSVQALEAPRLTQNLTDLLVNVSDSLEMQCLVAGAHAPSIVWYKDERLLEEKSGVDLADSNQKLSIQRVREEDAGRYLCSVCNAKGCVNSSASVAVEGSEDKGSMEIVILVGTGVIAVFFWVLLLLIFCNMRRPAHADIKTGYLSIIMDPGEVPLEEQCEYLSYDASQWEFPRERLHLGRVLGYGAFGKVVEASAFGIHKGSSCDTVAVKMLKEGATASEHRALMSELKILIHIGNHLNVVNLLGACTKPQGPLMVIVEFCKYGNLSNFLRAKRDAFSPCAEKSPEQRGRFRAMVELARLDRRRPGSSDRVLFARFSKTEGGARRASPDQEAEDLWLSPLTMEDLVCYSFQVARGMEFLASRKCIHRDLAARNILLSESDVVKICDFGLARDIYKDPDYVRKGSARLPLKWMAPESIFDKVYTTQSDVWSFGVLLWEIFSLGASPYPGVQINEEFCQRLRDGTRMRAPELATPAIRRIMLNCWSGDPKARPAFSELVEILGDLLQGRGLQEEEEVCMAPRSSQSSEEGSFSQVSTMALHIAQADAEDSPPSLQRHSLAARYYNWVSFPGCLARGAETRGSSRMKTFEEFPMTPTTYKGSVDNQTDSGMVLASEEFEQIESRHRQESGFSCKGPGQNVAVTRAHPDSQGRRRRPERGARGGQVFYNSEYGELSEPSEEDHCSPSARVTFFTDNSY
Text: as §1

[12] = target: T12, BRSK2 (Homo sapiens, UniProt Q8IWQ3); conditions: compound concentration 10 uM, read-out: Percent Competition
T12 construct: purchased Ambit Biosciences (KINOMEscan)
Text: as §1

[13] = target: T13, MST1 (Homo sapiens, UniProt Q13043); conditions: compound concentration 10 uM
T13 construct: purchased Ambit Biosciences (KINOMEscan)
Text: as §1

[14] = target: T14, AKT2 (Homo sapiens, UniProt P31751); conditions: compound concentration 10 uM, read-out: Percent Competition
T14 construct: purchased Ambit Biosciences (KINOMEscan)
T14 sequence (P31751 whole entry): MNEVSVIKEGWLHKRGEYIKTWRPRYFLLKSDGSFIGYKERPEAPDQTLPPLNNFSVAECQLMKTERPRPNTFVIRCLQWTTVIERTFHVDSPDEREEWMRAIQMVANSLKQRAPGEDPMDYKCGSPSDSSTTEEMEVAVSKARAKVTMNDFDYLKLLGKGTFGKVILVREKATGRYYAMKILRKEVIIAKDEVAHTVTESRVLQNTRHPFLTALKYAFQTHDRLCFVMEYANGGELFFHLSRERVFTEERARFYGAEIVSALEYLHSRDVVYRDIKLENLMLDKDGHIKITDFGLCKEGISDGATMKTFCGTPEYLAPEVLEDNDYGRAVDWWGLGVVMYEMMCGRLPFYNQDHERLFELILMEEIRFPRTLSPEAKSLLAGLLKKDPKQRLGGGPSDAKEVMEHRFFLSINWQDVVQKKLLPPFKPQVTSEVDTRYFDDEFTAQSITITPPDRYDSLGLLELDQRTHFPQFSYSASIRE
Text: as §1

[15] = target: T15, CHEK1 (Homo sapiens, UniProt O14757); conditions: compound concentration 10 uM
T15 construct: purchased Ambit Biosciences (KINOMEscan)
Text: as §1

[16] = target: T16, RIPK1 (Homo sapiens, UniProt Q13546); conditions: compound concentration 10 uM, read-out: Percent Competition
T16 construct: purchased Ambit Biosciences (KINOMEscan)
Text: as §1

[17] = target: T17, MLK2 (Homo sapiens, UniProt Q02779); conditions: compound concentration 10 uM, read-out: Percent Competition
T17 construct: purchased Ambit Biosciences (KINOMEscan)
Text: as §1

[18] = target: T18, TNK1 (Homo sapiens, UniProt Q13470); conditions: compound concentration 10 uM, read-out: Percent Competition
T18 construct: purchased Ambit Biosciences (KINOMEscan)
Text: as §1

[19] = target: T19, MST2 (Homo sapiens, UniProt Q13188); conditions: compound concentration 10 uM, read-out: Percent Competition
T19 construct: purchased Ambit Biosciences (KINOMEscan)
Text: as §1

[20] = target: T20, PRKX (Homo sapiens, UniProt P51817); conditions: compound concentration 10 uM, read-out: Percent Competition
T20 construct: purchased Ambit Biosciences (KINOMEscan)
T20 sequence (P51817 whole entry): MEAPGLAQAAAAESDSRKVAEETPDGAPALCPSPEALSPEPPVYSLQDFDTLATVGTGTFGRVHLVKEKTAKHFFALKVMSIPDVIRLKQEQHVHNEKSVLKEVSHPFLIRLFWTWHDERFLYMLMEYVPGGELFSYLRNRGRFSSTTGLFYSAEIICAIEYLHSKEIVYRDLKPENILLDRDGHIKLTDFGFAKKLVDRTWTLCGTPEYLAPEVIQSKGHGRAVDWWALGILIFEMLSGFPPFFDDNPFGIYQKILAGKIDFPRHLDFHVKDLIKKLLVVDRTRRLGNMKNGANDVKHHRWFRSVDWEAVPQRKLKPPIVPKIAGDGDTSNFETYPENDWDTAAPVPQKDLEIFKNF
Text: as §1

[21] = target: T21, ABL1(M351T) (Homo sapiens, UniProt P00519, M351T); conditions: compound concentration 10 uM, read-out: Percent Competition
T21 construct: purchased Ambit Biosciences (KINOMEscan)
Text: as §1

[22] = target: T22, DAPK2 (Homo sapiens, UniProt Q9UIK4); conditions: compound concentration 10 uM, read-out: Percent Competition
T22 construct: purchased Ambit Biosciences (KINOMEscan)
Text: as §1

[23] = target: T23, BRK (Homo sapiens, UniProt Q13882); conditions: compound concentration 10 uM, read-out: Percent Competition
T23 construct: purchased Ambit Biosciences (KINOMEscan)
Text: as §1

[24] = target: T24, ERK5 (Homo sapiens, UniProt Q13164); conditions: compound concentration 10 uM, read-out: Percent Competition
T24 construct: purchased Ambit Biosciences (KINOMEscan)
Text: as §1

[25] = target: T25, RPS6KA3(Kin.Dom.1-N-terminal) (Homo sapiens, UniProt P51812); conditions: compound concentration 10 uM, read-out: Percent Competition
T25 construct: RPS6KA3(Kin.Dom.1-N-terminal); purchased Ambit Biosciences (KINOMEscan)
Text: as §1

[26] = target: T26, SRMS (Homo sapiens, UniProt Q9H3Y6); conditions: compound concentration 10 uM, read-out: Percent Competition
T26 construct: purchased Ambit Biosciences (KINOMEscan)
Text: as §1

[27] = target: T27, PIM2 (Homo sapiens, UniProt Q9P1W9); conditions: compound concentration 10 uM, read-out: Percent Competition
T27 construct: purchased Ambit Biosciences (KINOMEscan)
Text: as §1

[28] = target: T28, CSNK2A1 (Homo sapiens, UniProt P68400); conditions: compound concentration 10 uM, read-out: Percent Competition
T28 construct: purchased Ambit Biosciences (KINOMEscan)
T28 sequence (P68400 whole entry): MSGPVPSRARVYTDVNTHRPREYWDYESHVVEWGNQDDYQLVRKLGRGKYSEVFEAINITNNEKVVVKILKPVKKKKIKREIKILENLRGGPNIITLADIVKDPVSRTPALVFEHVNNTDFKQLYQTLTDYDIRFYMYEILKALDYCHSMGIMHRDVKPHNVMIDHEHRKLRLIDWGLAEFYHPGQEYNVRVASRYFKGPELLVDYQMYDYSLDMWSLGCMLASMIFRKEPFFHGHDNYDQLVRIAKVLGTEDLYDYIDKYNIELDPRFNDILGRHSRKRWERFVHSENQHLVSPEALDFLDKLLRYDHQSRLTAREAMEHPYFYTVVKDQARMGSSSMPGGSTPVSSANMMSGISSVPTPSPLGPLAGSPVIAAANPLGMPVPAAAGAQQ
Text: as §1

[29] = target: T29, EPHB2 (Homo sapiens, UniProt P29323); conditions: compound concentration 10 uM
T29 construct: purchased Ambit Biosciences (KINOMEscan)
Text: as §1

[30] = target: T30, TAK1 (Homo sapiens, UniProt O43318); conditions: compound concentration 10 uM, read-out: Percent Competition
T30 construct: purchased Ambit Biosciences (KINOMEscan)
T30 sequence (O43318 whole entry): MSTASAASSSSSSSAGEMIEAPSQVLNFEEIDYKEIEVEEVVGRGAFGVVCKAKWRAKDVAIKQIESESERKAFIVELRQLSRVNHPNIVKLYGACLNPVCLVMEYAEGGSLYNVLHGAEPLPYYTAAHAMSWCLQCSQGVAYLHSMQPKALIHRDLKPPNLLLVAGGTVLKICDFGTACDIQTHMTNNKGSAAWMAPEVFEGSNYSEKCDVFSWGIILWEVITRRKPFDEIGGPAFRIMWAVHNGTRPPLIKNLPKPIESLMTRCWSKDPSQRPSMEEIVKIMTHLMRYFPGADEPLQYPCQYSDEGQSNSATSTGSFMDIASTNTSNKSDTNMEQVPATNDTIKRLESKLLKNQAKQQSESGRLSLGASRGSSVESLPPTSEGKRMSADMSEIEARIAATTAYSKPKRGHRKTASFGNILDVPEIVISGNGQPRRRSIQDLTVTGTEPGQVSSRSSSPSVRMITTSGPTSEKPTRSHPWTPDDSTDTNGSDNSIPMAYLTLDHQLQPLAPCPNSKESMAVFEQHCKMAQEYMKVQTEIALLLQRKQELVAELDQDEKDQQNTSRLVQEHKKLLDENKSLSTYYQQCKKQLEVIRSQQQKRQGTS
Text: as §1

[31] = target: T31, ULK3 (Homo sapiens, UniProt Q6PHR2); conditions: compound concentration 10 uM
T31 construct: purchased Ambit Biosciences (KINOMEscan)
T31 sequence (Q6PHR2 whole entry): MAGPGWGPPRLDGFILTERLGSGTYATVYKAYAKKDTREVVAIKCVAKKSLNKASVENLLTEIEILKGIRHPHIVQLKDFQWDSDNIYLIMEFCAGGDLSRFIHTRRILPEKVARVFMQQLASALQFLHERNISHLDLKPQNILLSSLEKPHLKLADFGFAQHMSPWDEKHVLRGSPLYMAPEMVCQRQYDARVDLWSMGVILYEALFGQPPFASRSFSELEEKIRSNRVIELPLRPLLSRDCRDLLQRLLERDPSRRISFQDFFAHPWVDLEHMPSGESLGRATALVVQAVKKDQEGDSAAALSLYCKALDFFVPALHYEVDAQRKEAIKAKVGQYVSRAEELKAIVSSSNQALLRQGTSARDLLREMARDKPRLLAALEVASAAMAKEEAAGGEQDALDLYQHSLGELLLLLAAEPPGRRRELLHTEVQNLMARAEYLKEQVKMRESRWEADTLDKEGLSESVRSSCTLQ
Text: as §1

[32] = target: T32, JAK2(JH1domain-catalytic) (Homo sapiens, UniProt O60674); conditions: compound concentration 10 uM
T32 construct: JAK2(JH1domain-catalytic); purchased Ambit Biosciences (KINOMEscan)
Text: as §1

[33] = target: T33, ULK1 (Homo sapiens, UniProt O75385); conditions: compound concentration 10 uM
T33 construct: purchased Ambit Biosciences (KINOMEscan)
Text: as §1

[34] = target: T34, MEK1 (Homo sapiens, UniProt Q02750); conditions: compound concentration 10 uM, read-out: Percent Competition
T34 construct: purchased Ambit Biosciences (KINOMEscan)
Text: as §1

[35] = target: T35, ABL1(E255K) (Homo sapiens, UniProt P00519, E255K); conditions: compound concentration 10 uM, read-out: Percent Competition
T35 construct: purchased Ambit Biosciences (KINOMEscan)
Text: as §1

[36] = target: T36, MINK (Homo sapiens, UniProt Q8N4C8); conditions: compound concentration 10 uM, read-out: Percent Competition
T36 construct: purchased Ambit Biosciences (KINOMEscan)
Text: as §1

[37] = target: T37, PRKG1 (Homo sapiens, UniProt Q13976); conditions: compound concentration 10 uM, read-out: Percent Competition
T37 construct: purchased Ambit Biosciences (KINOMEscan)
Text: as §1

[38] = target: T38, JAK3(JH1domain-catalytic) (Homo sapiens, UniProt P52333); conditions: compound concentration 10 uM, read-out: Percent Competition
T38 construct: JAK3(JH1domain-catalytic); purchased Ambit Biosciences (KINOMEscan)
T38 sequence (P52333 782-1124 limits assumed): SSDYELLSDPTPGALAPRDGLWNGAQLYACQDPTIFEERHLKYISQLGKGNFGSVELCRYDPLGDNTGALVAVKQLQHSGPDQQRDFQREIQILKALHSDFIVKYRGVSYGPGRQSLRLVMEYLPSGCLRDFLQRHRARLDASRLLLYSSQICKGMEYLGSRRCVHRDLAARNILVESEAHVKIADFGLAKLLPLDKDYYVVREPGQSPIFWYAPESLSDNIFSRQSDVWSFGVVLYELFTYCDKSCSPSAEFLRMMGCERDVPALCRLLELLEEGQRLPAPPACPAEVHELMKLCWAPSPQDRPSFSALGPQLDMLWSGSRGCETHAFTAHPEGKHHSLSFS
Text: as §1

[39] = target: T39, LIMK2 (Homo sapiens, UniProt P53671); conditions: compound concentration 10 uM, read-out: Percent Competition
T39 construct: purchased Ambit Biosciences (KINOMEscan)
Text: as §1

[40] = target: T40, KIT (Homo sapiens, UniProt P10721); conditions: compound concentration 10 uM, read-out: Percent Competition
T40 construct: purchased Ambit Biosciences (KINOMEscan)
T40 sequence (P10721 26-976): as the sequence (P10721 26-976 D816V) above, with V791D counted along it
Text: as §1

## Fc1ccc(-c2c(-c3ccncc3)[nH]c3nccnc23)cc1 [RO1155697-000-005]
[1]
  inhibition at 10 µM: < 50%
[2]
  inhibition at 10 µM: < 50%
[3]
  inhibition at 10 µM: < 50%
[4]
  Percent Competition: <50%
[5]
  inhibition at 10 µM: < 50%
[6]
  Percent Competition: <50%
[7]
  inhibition at 10 µM: < 50%
[8]
  inhibition at 10 µM: < 50%
[9]
  inhibition at 10 µM: < 50%
[10]
  inhibition at 10 µM: < 50%
[11]
  inhibition at 10 µM: < 50%
[12]
  inhibition at 10 µM: < 50%
[13]
  Percent Competition: <50%
[14]
  inhibition at 10 µM: < 50%
[15]
  Percent Competition: <50%
[16]
  inhibition at 10 µM: < 50%
[17]
  inhibition at 10 µM: < 50%
[18]
  inhibition at 10 µM: < 50%
[19]
  inhibition at 10 µM: < 50%
[20]
  inhibition at 10 µM: < 50%
[21]
  inhibition at 10 µM: < 50%
[22]
  inhibition at 10 µM: < 50%
[23]
  inhibition at 10 µM: < 50%
[24]
  inhibition at 10 µM: < 50%
[25]
  inhibition at 10 µM: < 50%
[26]
  inhibition at 10 µM: < 50%
[27]
  inhibition at 10 µM: < 50%
[28]
  inhibition at 10 µM: < 50%
[29]
  Percent Competition: <50%
[30]
  inhibition at 10 µM: < 50%
[31]
  Percent Competition: <50%
[32]
  Percent Competition: <50%
[33]
  Percent Competition: <50%
[34]
  inhibition at 10 µM: < 50%
[35]
  inhibition at 10 µM: < 50%
[36]
  inhibition at 10 µM: < 50%
[37]
  inhibition at 10 µM: < 50%
[38]
  inhibition at 10 µM: < 50%
[39]
  inhibition at 10 µM: < 50%
[40]
  inhibition at 10 µM: < 50%
